In patent US20120245357A1, “ALR2 INHIBITORS AND THEIR SYNTHESIS FROM A NATURAL SOURCE” (COUNCIL OF SCIENTIFIC & INDUSTRIAL RESEARCH, priority 2010, published 2012):
Like-named read-outs stand apart in the source and are kept apart here.

Experiments:
human recombinant ALR2 = target: T1, human recombinant ALR2 (Homo sapiens, UniProt P15121); experiment: ALR2 inhibition and determination of IC50 values (NADPH oxidation at 340 nm); assay type: biochemical
T1 construct: made in house; host or cells: E. coli JM101
Procedure: Transformed cells were selected on LB-medium containing 50 μg/ml spectinomycin and were grown overnight at 37° C. in LB broth containing M9 medium supplemented with 1% casamino acids, […] thiamine, and 0.05% trace metals. Culture was induced by isopropyl thiogalactoside (IPTG) at the final concentration of 1 mM and grown for additional 2 hours. Cells were harvested by spinning at 2000 g for 5 min at 4° C. and subjected to osmotic fractionation by suspending them in 20% sucrose, 30 mM Tris pH 7.5, 1 mM EDTA, and then cells were incubated at 23° C. for 15 min. After incubation, cells were recovered by centrifugation for 15 min at 2000 g at 4° C. Supernatant (sucrose wash) was reserved and pellet was resuspended in 1 ml of ice cold deionized water and incubated for 10 min on ice. Again cells were recovered by centrifugation at 12000 g for 5 min at 4° C. Supernatant (water wash) was reserved and pellet was resuspended in 1 ml of ice cold deionized water. Osmotic shock extract was further subjected to purification.
Osmotic shock extract was subjected to 50-80% ammonium sulphate fractionation followed by centrifugation at 10,000 g for 20 min. The pellet obtained was resuspended in 100-200 ml of 25 mM imidazole-HCl, pH 7.4. Crude lysate was applied to chromatography column packed with PBE 94 chromatofocussing resin, which had been previously equilibrated with 25 mM imidazole. Proteins were eluted from the column with 1:8 diluted polybuffer pH 7.4. Column eluant was continuously monitored by measuring absorbance at 280 nm. Fractions containing ALR2 activity were pooled and dialyzed against 10 mM potassium phosphate buffer containing 0.5 mM EDTA. Dialyzed samples were then applied to 30×2.5 cm at hydroxylapatite column equilibrated with 10 mM potassium phosphate buffer pH 7.4 containing 0.5 mM EDTA at a flow rate of 60 ml/h. The enzyme was eluted with a linear gradient 10-300 mM potassium phosphate buffer, pH 7.0. Fractions from each purification step are subjected to SDS-PAGE. Fractions containing ALR2 activity were pooled, concentrated and stored at −20° C. until further inhibition studies.
The assay mixture in 1 ml contained 50 mM potassium phosphate buffer, pH 6.2, 0.2 mM lithium sulfate, 5 mM 2-mercaptoethanol, 1 mM DL-glyceraldehyde, 0.1 mM NADPH and recombinant ALR2. Appropriate blanks were employed for corrections. The assay mixture was incubated at 37° C. and initiated by the addition of NADPH at 37° C. The change in the absorbance at 340 nm due to NADPH oxidation was monitored in a Lamda35 spectrophotometer (Perkin-Elmer, Shelton, USA).
For inhibition studies concentrated stocks of compounds prepared in dimethyl sulfoxide were used and the final concentration of DMSO was not more than 1% of the assay volume. Various concentrations of the above mentioned analogues were added to assay mixture of ALR2 and incubated for 5 min before initiating the reaction by NADPH as described above. The percentage inhibition was calculated considering the activity in the absence of compound as 100%. The IC50 values were determined by nonlinear regression analysis of the plot of percent inhibition versus log compound concentration.

human RBC = experiment: Inhibition of sorbitol formation in RBC under high glucose conditions (ex vivo); assay type: cell-based; conditions: human RBC incubated under high glucose condition (55 mM), 3 hrs
Procedure: In vitro incubation of RBC: Five mL blood was collected from healthy male volunteers on overnight fasting in heparinized tubes. Red blood cells were separated by centrifugation (3000 rpm/min about 30 min) and washed three times with isotonic saline at 4° C. Washed RBC were suspended in Kreb's-ringer bicarbonate buffer, pH 7.4 (pre-equilibrated with 5% CO2) and incubated at 37° C. in presence of 5% CO2 for 3 hrs under normal (5.5 mM) and high glucose (55 mM) conditions in duplicates. The effect of compounds on sorbitol accumulation was evaluated by incubating the RBC with different concentrations of compounds.
Estimation of sorbitol in RBC: At the end of incubation period, RBC was homogenized in 9 volumes of 0.8 M perchloric acid. The homogenate was centrifuged at 5,000 g at 4° C. for 10 min and the pH of the supernatant was adjusted to 3.5 with 0.5 M potassium carbonate. The sorbitol content of the supernatant was measured by fluorometric method using a spectrofluorometer (Jasco-FP-6500).

[1] = human recombinant ALR2, read-out: IC50 value, ALR2 inhibition
[2] = recombinant human ALR2 in vitro, average of four experimental values, read-out: IC-50

In the case of `COc1cc(C(CC(=O)N2CCC=CC2=O)c2c[nH]c3ccc(Br)cc23)cc(OC)c1OC` (racemic) [2g, 1-(3-(5-bromo-1H-indol-3-yl)-3-(3,4,5-trimethoxyphenyl)propanoyl)-5,6-dihydropyridin-2(1H)-one], the IC50 (human recombinant ALR2; SAR studies text, read-out: IC50, in-vitro aldose reductase inhibition) is reported as 60 µM and the IC50 (human recombinant ALR2; [1]) is reported as 15 µM.

With `COc1ccc2[nH]cc(C(CC(=O)N3CCC=CC3=O)c3cc(OC)c(OC)c(OC)c3)c2c1` (stereo not shown) [2j, 1-(3-(5-methoxy-1H-indol-3-yl)-3-(3,4,5-trimethoxyphenyl)propanoyl)-5,6-dihydropyridin-2(M)-one] the IC50 (human recombinant ALR2; [1]) was 8 µM and the “% inhibition of sorbitol formation” value (human RBC) was 64.9%.

In the case of `COc1cc(C(CC(=O)N2CCC(c3cn(Cc4ccccc4)c4ccccc34)CC2=O)c2cn(Cc3ccccc3)c3ccccc23)cc(OC)c1OC` (stereo not shown) [3c, 1-(3-(1-benzyl-1H-indol-3-yl)-3-(3,4,5-trimethoxyphenyl)propanoyl)-4-(1-benzyl-1H-indol-3-yl)piperidin-2-one], the IC50 (human recombinant ALR2; [1]) is reported as 4 µM and the “% inhibition of sorbitol formation” value (human RBC) is reported as 58.5%.

For `COc1cc(C(CC(=O)N2CCC(c3c(C)[nH]c4ccccc34)CC2=O)c2c(C)[nH]c3ccccc23)cc(OC)c1OC` (stereo not shown) [3d, 1-(3-(3,4,5-trimethoxyphenyl)-3-(2-methyl-1H-indol-3-yl)propanoyl)-4-(2-methyl-1H-indol-3-yl)piperidin-2-one], the IC50 (human recombinant ALR2; [2]) was 40 µM.

`COc1cc(C(CC(=O)N2CCC(c3c(-c4ccccc4)[nH]c4ccccc34)CC2=O)c2c(-c3ccccc3)[nH]c3ccccc23)cc(OC)c1OC` (stereo not shown) [3e, 1-(3-(3,4,5-trimethoxyphenyl)-3-(2-phenyl-1H-indol-3-yl)propanoyl)-4-(2-phenyl-1H-indol-3-yl)piperidin-2-one] was tested, and the IC50 (human recombinant ALR2; [2]) was 4 µM and the “% inhibition of sorbitol formation” value (human RBC) was 68%.

`COc1cc(/C=C/C(=O)N2CCC=CC2=O)cc(OC)c1OC` [Piplartine, 5,6-dihydro-1-((E)-3-(3,4,5-trimethoxyphenyl)acryloyl)pyridin-2(1H)-one] showed an IC50 (human recombinant ALR2; [1]) of 160 µM.

With `COc1cc(C(CC(=O)O)c2c(C)[nH]c3ccccc23)cc(OC)c1OC` (stereo not shown) [compound 4, 3-(3,4,5-trimethoxyphenyl)-3-(2-methyl-1H-indol-3-yl)propanoic acid] the “ALR2 inhibitory activity (in words)” value (human recombinant ALR2) was “inactive”.

For `COC(=O)/C=C/c1cc(OC)c(OC)c(OC)c1` [compound 5, (E)-methyl 3-(3,4,5-trimethoxyphenyl)acrylate], the “ALR2 inhibitory activity (in words)” value (human recombinant ALR2) was “inactive”.

Compound pipernal has an IC50 (human recombinant ALR2; [1]) of 310 µM.
